Assay results reported in ChEMBL document CHEMBL1201862, “PubChem BioAssay data set” (2004).
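Five concentrations, 48 hours, 96-well plates. GI50 marks 50% less growth.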 The source made the active and inactive calls. Rule as the data show it: active = GI50 up to about 1.1 µM and inactive = higher.

How the values were obtained:
Assay in all cases: growth of human tumour cells (NCI), 48 h
[1] = system: 786-0
[2] = system: CAKI-1
[3] = system: CCRF-CEM
[4] = system: EKVX
[5] = system: HCC 2998
[6] = system: HOP-62
[7] = system: HOP-92
[8] = system: Hs-578T
[9] = system: LOX IMVI
[10] = system: M14
[11] = system: SK-MEL-2
[12] = system: SK-MEL-5
[13] = system: SK-OV-3
[14] = system: SN12C
[15] = system: SNB-19
[16] = system: SW-620
[17] = system: TK-10
[18] = system: U-251
[19] = system: UACC-257
[20] = system: UACC-62

| Structure (SMILES) | GI50 [1] | GI50 [2] | GI50 [3] | GI50 [4] | GI50 [5] | GI50 [6] | GI50 [7] | GI50 [8] | GI50 [9] | GI50 [10] | GI50 [11] | GI50 [12] | GI50 [13] | GI50 [14] | GI50 [15] | GI50 [16] | GI50 [17] | GI50 [18] | GI50 [19] | GI50 [20] |
| --- | --- | --- | --- | --- | --- | --- | --- | --- | --- | --- | --- | --- | --- | --- | --- | --- | --- | --- | --- | --- |
| C=CCN1C(=O)/C(=C/c2ccccc2)NC1=S | > 100 µM (inactive) | > 100 µM (inactive) | > 100 µM (inactive) | 91 µM (inactive) | > 100 µM (inactive) | > 100 µM (inactive) | > 100 µM (inactive) | > 100 µM (inactive) | > 100 µM (inactive) | > 100 µM (inactive) | > 100 µM (inactive) | 65.5 µM (inactive) | > 100 µM (inactive) | > 100 µM (inactive) | > 100 µM (inactive) | > 100 µM (inactive) | > 100 µM (inactive) | > 100 µM (inactive) | 74.1 µM (inactive) | > 100 µM (inactive) |
| CCOC(=O)C(=CNC(=S)Nc1c(CC)cccc1CC)C(=O)OCC | > 100 µM (inactive) | > 100 µM (inactive) | > 100 µM (inactive) | > 100 µM (inactive) | > 100 µM (inactive) | > 100 µM (inactive) | 94.4 µM (inactive) | 80.7 µM (inactive) | > 100 µM (inactive) | > 100 µM (inactive) | > 100 µM (inactive) | > 100 µM (inactive) | > 100 µM (inactive) | > 100 µM (inactive) | > 100 µM (inactive) | > 100 µM (inactive) | > 100 µM (inactive) | > 100 µM (inactive) | > 100 µM (inactive) | > 100 µM (inactive) |
| CC(CO)C1=CC(C#CCOCc2ccccc2)N(C(=O)Oc2ccccc2)c2ccccc21 (stereo not given) | 28 µM (inactive) | 18.7 µM (inactive) | 15 µM (inactive) | 10.3 µM (inactive) | 25.5 µM (inactive) | 29.3 µM (inactive) | 7.69 µM (inactive) | 14.3 µM (inactive) | 33.5 µM (inactive) | 17.1 µM (inactive) | 23.3 µM (inactive) | 21.4 µM (inactive) | 34.9 µM (inactive) | 15.9 µM (inactive) | 32.5 µM (inactive) | 45.5 µM (inactive) | 48.1 µM (inactive) | 34.5 µM (inactive) | 13.2 µM (inactive) | 2.81 µM (inactive) |
| COC(=O)[C@@H]1C=C[C@H](OC2OC(COC(C)=O)C(OC(C)=O)C(OC(C)=O)C2OC(C)=O)n2c(=O)n(-c3ccccc3)c(=O)n21 (stereo not given in full) | 1.41 µM (inactive) | 1.2 µM (inactive) | 1.48 µM (inactive) | 5.9 µM (inactive) | 8 µM (inactive) | 14.5 µM (inactive) | 1.77 µM (inactive) | 17.3 µM (inactive) | 1.56 µM (inactive) | 2.36 µM (inactive) | 2.25 µM (inactive) | 2.56 µM (inactive) | 15.9 µM (inactive) | 2.69 µM (inactive) | 11.4 µM (inactive) | 1.79 µM (inactive) | 1.79 µM (inactive) | 2.8 µM (inactive) | 2.13 µM (inactive) | 3.1 µM (inactive) |
| COc1ccc(SCc2cc(OC)c(OC)c(OC)c2)cc1OC | > 100 µM (inactive) | 44.5 µM (inactive) | 64.9 µM (inactive) | 43.4 µM (inactive) | 50.9 µM (inactive) | > 100 µM (inactive) | 25.6 µM (inactive) | 54 µM (inactive) | 51.4 µM (inactive) | 64.1 µM (inactive) | 23 µM (inactive) | 15.8 µM (inactive) | 50.1 µM (inactive) | > 100 µM (inactive) | > 81.1 µM (inactive) | 82.6 µM (inactive) | > 91.4 µM (inactive) | 53.8 µM (inactive) | 45.6 µM (inactive) | 38 µM (inactive) |
| Cc1nc(SCC(=O)Nc2ccc(Cl)cc2)c2sc(=S)n(-c3ccccc3)c2n1 | > 10 µM (inactive) | > 10 µM (inactive) | > 10 µM (inactive) | > 10 µM (inactive) | > 10 µM (inactive) | > 10 µM (inactive) | 5.15 µM (inactive) | > 10 µM (inactive) | > 10 µM (inactive) | > 10 µM (inactive) | > 10 µM (inactive) | > 10 µM (inactive) | > 10 µM (inactive) | > 10 µM (inactive) | > 10 µM (inactive) | > 10 µM (inactive) | > 10 µM (inactive) | > 10 µM (inactive) | > 10 µM (inactive) | > 10 µM (inactive) |
| Cc1[nH]c2ncn(Nc3ccccc3)c(=N)c2c1Cc1ccccc1 | 66.1 µM (inactive) | 24.4 µM (inactive) | 37.3 µM (inactive) | 5.89 µM (inactive) | > 100 µM (inactive) | 32.4 µM (inactive) | 33.1 µM (inactive) | 8.28 µM (inactive) | 10.7 µM (inactive) | 0.162 µM (active) | 0.142 µM (active) | 0.386 µM (active) | > 100 µM (inactive) | > 80.5 µM (inactive) | > 51.3 µM (inactive) | 34.1 µM (inactive) | > 75.9 µM (inactive) | 19.7 µM (inactive) | 0.462 µM (active) | 0.0254 µM (active) |
| CCCCCCCCC/C=C1\CCC(CN2CCOCC2)C1=O (stereo not given) | 1.3 µM (inactive) | 4.6 µM (inactive) | 1.8 µM (inactive) | 14.8 µM (inactive) | 6.9 µM (inactive) | 13.6 µM (inactive) | 3.38 µM (inactive) | 1.94 µM (inactive) | 0.855 µM (active) | 3.23 µM (inactive) | 5.51 µM (inactive) | 6.65 µM (inactive) | 17.3 µM (inactive) | 3.78 µM (inactive) | 9.04 µM (inactive) | 2.28 µM (inactive) | 2.33 µM (inactive) | 2.02 µM (inactive) | 3.99 µM (inactive) | 3.45 µM (inactive) |
| Cc1cc2c(c(/C=N/c3ccc(N(C)C)cc3)c1)OC1(C=C2)Oc2ccccc2C(=O)N1C (stereo not given) | 14.2 µM (inactive) | 14.6 µM (inactive) | 2.71 µM (inactive) | 12.5 µM (inactive) | 16.6 µM (inactive) | > 43 µM (inactive) | 16.4 µM (inactive) | 21.5 µM (inactive) | 13 µM (inactive) | 14.5 µM (inactive) | > 39.2 µM (inactive) | 13.9 µM (inactive) | 24.4 µM (inactive) | 15.7 µM (inactive) | 7.96 µM (inactive) | 17.3 µM (inactive) | 16.3 µM (inactive) | 15.1 µM (inactive) | 14.7 µM (inactive) | 13.1 µM (inactive) |
| NCC1OC(OC2C(N)CC(N)C(O)C2OC2OC(CO)C(O)C2O)C(N)C(O)C1O (stereo not given) | > 50 µM (inactive) | > 100 µM (inactive) | > 100 µM (inactive) | > 100 µM (inactive) | > 50 µM (inactive) | > 50 µM (inactive) | > 50 µM (inactive) | > 100 µM (inactive) | > 50 µM (inactive) | > 50 µM (inactive) | > 50 µM (inactive) | > 50 µM (inactive) | > 50 µM (inactive) | > 50 µM (inactive) | > 50 µM (inactive) | > 100 µM (inactive) | > 50 µM (inactive) | > 100 µM (inactive) | > 50 µM (inactive) | > 100 µM (inactive) |
| COC(=O)C1=C(O)C(C(=O)OC)[C@]2(O)[C@H](C(=O)OC)[C@H]1C[C@@H](c1ccc(OC)c(OC)c1)[C@H]2C(=O)OC (stereo not given in full) | 39.8 µM (inactive) | 25.8 µM (inactive) | 0.129 µM (active) | 32.5 µM (inactive) | 11.7 µM (inactive) | 16.7 µM (inactive) | 21.2 µM (inactive) | 29.9 µM (inactive) | 13.4 µM (inactive) | 12.3 µM (inactive) | 20 µM (inactive) | 13.3 µM (inactive) | 17.6 µM (inactive) | 28.2 µM (inactive) | 14.6 µM (inactive) | 15.6 µM (inactive) | 24.9 µM (inactive) | 11.2 µM (inactive) | 20.5 µM (inactive) | 22.9 µM (inactive) |
| O=C1CCc2c(sc3ncnc(Nc4cccc(Br)c4)c23)C1 | 4.43 µM (inactive) | 2.09 µM (inactive) | 2.08 µM (inactive) | 2.19 µM (inactive) | 4.26 µM (inactive) | 5.53 µM (inactive) | 2.54 µM (inactive) | 4.15 µM (inactive) | 3.49 µM (inactive) | 3.42 µM (inactive) | 6.89 µM (inactive) | 1.88 µM (inactive) | 7.52 µM (inactive) | 3.4 µM (inactive) | 4.12 µM (inactive) | 3.62 µM (inactive) | 4.06 µM (inactive) | 2.81 µM (inactive) | 3.55 µM (inactive) | 3.72 µM (inactive) |
